Experimental data as given in patent publication US12378287B2 (priority 2019, dated 2025).
pKd: −log10 of the molar value.

Legend:
GII.17 VLP = assay type: binding, norovirus; conditions: 100 μM peptide on SA chip; for pKd: GII.17 VLP 1, 0.1, 0.01, 0.001 mg/mL, KD calculated from ka and kd; for ka / kd: GII.17 VLP; for ka: association 90 sec; for kd: dissociation 60 sec
Description: (§1) The apparatus used was BLItz™ (manufactured by ForteBio). The tip of SA chip (manufactured by ForteBio) was kept in contact with purified water for 1 minute for hydration and was then kept in contact with a 1% BSA aqueous solution for 1 hour for blocking. The SA chip subjected to blocking treatment was set to the measuring unit of the BLItz™ main body, and measurement was performed according to the program shown in Table 16. The peptides of SEQ ID NOs: 103, 167, 205, 263, 283, 288, and 302 were used, and the concentration was adjusted to 100 μM. The concentrations of each of the GII.3 and GII.17 VLPs were adjusted to 1, 0.1, 0.01, and 0.001 mg/mL. The measurement data were analyzed using the attached software, and the KD value was calculated based on the Ka and Kd values.

GII.3 VLP = assay type: binding, norovirus; conditions: 100 μM peptide on SA chip; for pKd: GII.3 VLP 1, 0.1, 0.01, 0.001 mg/mL, KD calculated from ka and kd; for ka / kd: GII.3 VLP; for ka: association 90 sec; for kd: dissociation 60 sec
Description: as §1

Sequence: FVWSRRTGLY [No.205]
- pKd (GII.17 VLP): 6.96
- ka (GII.17 VLP): 169000 M⁻¹ s⁻¹
- kd (GII.17 VLP): 0.0184 s⁻¹
- pKd (GII.3 VLP): 7.50
- ka (GII.3 VLP): 1.03e+06 M⁻¹ s⁻¹
- kd (GII.3 VLP): 0.001 s⁻¹

Sequence: CKARSARGVS [No.288]
- pKd (GII.17 VLP): 7.92
- ka (GII.17 VLP): 620000 M⁻¹ s⁻¹
- kd (GII.17 VLP): 0.00747 s⁻¹
- pKd (GII.3 VLP): 8.16
- ka (GII.3 VLP): 2.09e+06 M⁻¹ s⁻¹
- kd (GII.3 VLP): 0.0143 s⁻¹

Sequence: RSMSLHVSMT [No.283]
- pKd (GII.17 VLP): 8.86
- ka (GII.17 VLP): 994000 M⁻¹ s⁻¹
- kd (GII.17 VLP): 0.000138 s⁻¹
- pKd (GII.3 VLP): 9.04
- ka (GII.3 VLP): 7.86e+06 M⁻¹ s⁻¹
- kd (GII.3 VLP): 0.00715 s⁻¹

Sequence: ANYRWSRSIK [No.263]
- pKd (GII.17 VLP): 7.72
- ka (GII.17 VLP): 140000 M⁻¹ s⁻¹
- kd (GII.17 VLP): 0.00865 s⁻¹
- pKd (GII.3 VLP): 7.24
- ka (GII.3 VLP): 851000 M⁻¹ s⁻¹
- kd (GII.3 VLP): 0.049 s⁻¹

Sequence: VWWGRRISRF [No.302]
- pKd (GII.17 VLP): 7.55
- ka (GII.17 VLP): 2.28e+06 M⁻¹ s⁻¹
- kd (GII.17 VLP): 0.0648 s⁻¹

Sequence: RFLVPVVKVM [No.103]
- pKd (GII.17 VLP): 8.09
- ka (GII.17 VLP): 1.38e+06 M⁻¹ s⁻¹
- kd (GII.17 VLP): 0.0112 s⁻¹
- pKd (GII.3 VLP): 8.09
- ka (GII.3 VLP): 2.1e+06 M⁻¹ s⁻¹
- kd (GII.3 VLP): 0.017 s⁻¹

Sequence: FVWRRRAGLY [No.167]
- pKd (GII.17 VLP): 9.16
- ka (GII.17 VLP): 1.59e+06 M⁻¹ s⁻¹
- kd (GII.17 VLP): 0.00111 s⁻¹
- pKd (GII.3 VLP): 8.86
- ka (GII.3 VLP): 3.14e+06 M⁻¹ s⁻¹
- kd (GII.3 VLP): 0.00435 s⁻¹
